Experimental findings from publication PMC8102410, “Coordinate regulation of systemic and kidney tryptophan metabolism by the drug transporters OAT1 and OAT3” (The Journal of Biological Chemistry, 2021) are described below.

What all share (format): cell-based
Test [1] deals with T1, OAT3 (Homo sapiens, UniProt Q8TCC7).
T1 construct: gene SLC22A8
T1 sequence (Q8TCC7 1-542): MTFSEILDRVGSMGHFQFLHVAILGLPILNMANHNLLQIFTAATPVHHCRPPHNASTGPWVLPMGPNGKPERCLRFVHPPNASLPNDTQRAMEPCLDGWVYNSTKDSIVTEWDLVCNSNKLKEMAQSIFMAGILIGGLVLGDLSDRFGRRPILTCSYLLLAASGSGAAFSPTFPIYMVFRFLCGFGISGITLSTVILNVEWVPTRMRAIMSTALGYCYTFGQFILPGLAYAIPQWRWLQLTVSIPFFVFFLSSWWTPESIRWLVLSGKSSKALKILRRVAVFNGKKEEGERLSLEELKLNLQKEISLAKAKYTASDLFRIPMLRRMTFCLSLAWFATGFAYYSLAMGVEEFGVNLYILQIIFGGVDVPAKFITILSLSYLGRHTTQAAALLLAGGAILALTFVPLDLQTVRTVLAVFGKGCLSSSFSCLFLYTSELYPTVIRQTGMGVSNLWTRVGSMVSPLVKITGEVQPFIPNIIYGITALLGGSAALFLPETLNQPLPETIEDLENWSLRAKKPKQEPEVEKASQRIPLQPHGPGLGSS
The test is described as follows: inhibition of 6-carboxyfluorescein uptake in HEK-293 cells stably overexpressing human OAT3.

In test [2] the target is T2, OAT1 (Homo sapiens, UniProt Q4U2R8).
T2 construct: gene SLC22A6
T2 sequence (Q4U2R8 1-563): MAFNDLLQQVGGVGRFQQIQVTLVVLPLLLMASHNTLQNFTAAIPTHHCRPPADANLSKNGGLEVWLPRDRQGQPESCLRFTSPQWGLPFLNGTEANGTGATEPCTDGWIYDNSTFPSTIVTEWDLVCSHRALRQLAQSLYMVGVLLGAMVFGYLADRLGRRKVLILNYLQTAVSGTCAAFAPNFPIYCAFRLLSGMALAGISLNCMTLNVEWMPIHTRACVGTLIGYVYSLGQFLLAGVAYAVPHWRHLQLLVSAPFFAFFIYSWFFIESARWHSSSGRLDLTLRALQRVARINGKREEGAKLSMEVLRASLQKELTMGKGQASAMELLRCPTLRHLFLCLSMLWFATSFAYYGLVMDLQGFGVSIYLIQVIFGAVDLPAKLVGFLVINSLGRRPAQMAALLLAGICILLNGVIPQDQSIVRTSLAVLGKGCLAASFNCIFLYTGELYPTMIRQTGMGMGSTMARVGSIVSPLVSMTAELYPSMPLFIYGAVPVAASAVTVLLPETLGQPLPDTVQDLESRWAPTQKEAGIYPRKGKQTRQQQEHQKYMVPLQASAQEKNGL
The test is described as follows: inhibition of 6-carboxyfluorescein uptake in HEK-293 cells stably overexpressing human OAT1.

In test [3] the target is T1, OAT3. Briefly: inhibition of 6-carboxyfluorescein uptake in HEK-293 cells stably overexpressing human OAT3 (data not shown).

In general, IC50 refers to the midpoint of a concentration-inhibition curve. A lower IC50 goes with greater potency in that assay. In the case of `O=C(O)[C@@H](O)Cc1c[nH]c2ccccc12` [ILA, indolelactic acid], the IC50 in test [1] turned out to be 74.5 ± 23.3 µM; in test [2], 229 ± 74.6 µM.
`NCCc1c[nH]c2ccc(O)cc12` [serotonin] gave a concentration for half-maximal inhibition (IC50) in test [3] of 288 ± 167 µM.
